Legend:
Plasmodium falciparum = assay: Antiplasmodial activity against chloroquine/mefloquine-resistant Plasmodium falciparum Dd2 measured after 72 hrs by SYBR Green1-based fluorescence assay; assay type: functional; settings: Dd2, 72 h
[1] = Antiproliferative activity against human A2780 cells measured after 2 days by AlamarBlue assay; assay type: functional, cell-based; settings: A2780, 48 h

Compound	IC50 (Plasmodium falciparum)	IC50 [1]
CO[C@@H]1[C@@H](OC)[C@H](O[C@@H]2CC(=O)[C@@H]3CCN(Cc4cc5c(cc43)OCO5)C(=O)[C@H]2O)O[C@H](CO)[C@H]1OC	0.18 µM	0.0164 µM
CO[C@@H]1[C@@H](OC)[C@H](O[C@@H]2CC(=O)[C@@H]3CCN(Cc4cc5c(cc43)OCO5)C(=O)[C@H]2O)O[C@H](C)[C@H]1OC	0.26 µM	0.028 µM
CO[C@H]1[C@@H]2OCOCO[C@H]2[C@H](O[C@@H]2CC(=O)[C@@H]3CCN(Cc4cc5c(cc43)OCO5)C(=O)[C@H]2O)O[C@@H]1C	0.026 µM	0.025 µM
CO[C@H]1[C@@H]2OCOCO[C@H]2[C@H](O[C@@H]2CC(=O)[C@@H]3CCN(Cc4cc5c(cc43)OCO5)C(=O)[C@H]2O)O[C@@H]1CO	0.03 µM	0.0111 µM
C[C@@H]1CC[C@H]2[C@@H](C)C(=O)O[C@@H]3O[C@@]4(C)CC[C@@H]1[C@]32OO4 [ARTEMISININ]	0.006 µM	–
